≈ marks a conversion by molar mass, not a printed value.
Assays:
[1] = target: T1, 1-deoxy-D-xylulose-5-phosphate synthase (Mycobacterium tuberculosis, UniProt P9WNS3); test: Inhibition of Mycobacterium tuberculosis cloned 1-deoxy-D-xylulose-5-phosphate synthase expressed in Escherichia coli
T1 sequence (P9WNS3 whole entry): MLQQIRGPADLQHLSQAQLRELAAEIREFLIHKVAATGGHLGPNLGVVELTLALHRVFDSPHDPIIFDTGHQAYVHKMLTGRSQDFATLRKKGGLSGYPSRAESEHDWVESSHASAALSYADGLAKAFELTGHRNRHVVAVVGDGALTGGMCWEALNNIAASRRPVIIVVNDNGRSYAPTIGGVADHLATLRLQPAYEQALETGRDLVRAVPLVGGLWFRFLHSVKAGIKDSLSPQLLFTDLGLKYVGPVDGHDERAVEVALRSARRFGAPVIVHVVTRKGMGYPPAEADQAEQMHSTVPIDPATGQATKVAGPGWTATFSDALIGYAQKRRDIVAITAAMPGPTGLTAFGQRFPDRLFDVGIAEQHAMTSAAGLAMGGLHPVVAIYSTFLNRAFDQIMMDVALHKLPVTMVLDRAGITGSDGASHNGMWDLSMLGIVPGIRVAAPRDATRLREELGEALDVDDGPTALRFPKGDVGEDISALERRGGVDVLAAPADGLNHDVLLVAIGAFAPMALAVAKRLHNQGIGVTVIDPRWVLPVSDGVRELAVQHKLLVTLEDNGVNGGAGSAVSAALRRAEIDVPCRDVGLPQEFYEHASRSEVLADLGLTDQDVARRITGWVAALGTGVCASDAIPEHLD

[2] = test system: Mycobacterium tuberculosis; test: Antituberculosis activity against Mycobacterium tuberculosis; format: functional
Vero = test: Cytotoxicity against african green monkey Vero cells; format: cell-based; settings: Chlorocebus sabaeus
[3] = Selectivity index, ratio of IC50 for african green monkey Vero cells to MIC for Mycobacterium tuberculosis; format: functional
Transketolase = target: T2, Transketolase (Homo sapiens, UniProt P29401); test: Inhibition of human recombinant transketolase expressed in Escherichia coli
T2 sequence (P29401 whole entry): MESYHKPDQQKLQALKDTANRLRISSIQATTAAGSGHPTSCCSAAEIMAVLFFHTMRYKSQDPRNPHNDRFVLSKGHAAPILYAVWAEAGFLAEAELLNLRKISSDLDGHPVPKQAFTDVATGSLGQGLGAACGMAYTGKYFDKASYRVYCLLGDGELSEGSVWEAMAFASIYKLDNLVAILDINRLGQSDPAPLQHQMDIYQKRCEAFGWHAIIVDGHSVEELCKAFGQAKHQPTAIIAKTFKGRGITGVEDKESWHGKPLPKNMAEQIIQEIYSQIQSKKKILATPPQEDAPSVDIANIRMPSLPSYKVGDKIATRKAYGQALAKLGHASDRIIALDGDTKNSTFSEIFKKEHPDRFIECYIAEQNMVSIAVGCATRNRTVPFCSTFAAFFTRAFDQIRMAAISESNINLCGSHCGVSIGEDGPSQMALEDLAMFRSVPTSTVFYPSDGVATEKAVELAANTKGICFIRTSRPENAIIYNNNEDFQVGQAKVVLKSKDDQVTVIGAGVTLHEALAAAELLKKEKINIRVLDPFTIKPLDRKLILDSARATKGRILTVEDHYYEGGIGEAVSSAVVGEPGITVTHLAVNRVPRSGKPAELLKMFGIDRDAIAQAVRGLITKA

Row | SMILES | IC50 [1] [µM] | further results
1 | O=c1cc(Cc2ccccc2)[nH]c2c(-c3ccccc3)c(C(F)(F)F)nn12 | 71.1 | 
2 | COc1ccc(-c2cc(=O)n3nc(C)c(-c4ccc(OC)cc4)c3[nH]2)cc1 | 42.4 | MIC [2]: 61.8 µM (≈ 22.3 µg/mL); IC50 (Vero): 80.9 µM; Selectivity Index [3]: 2.1
3 | COc1ccccc1-c1cc(=O)n2nc(C)c(-c3ccc(Br)cc3)c2[nH]1 | 53.5 | 
4 | COC(=O)Cc1cc(=O)n2nc(C(F)(F)F)c(-c3ccc(Br)cc3)c2[nH]1 | 73 | 
5 | O=c1cc(CCl)[nH]c2c(-c3ccccc3)cnn12 | > 200 | 
6 | Cc1nn2c(=O)cc(-c3ccccc3)[nH]c2c1-c1ccccc1 | 30.6 | 
7 | COc1ccc(-c2cc(=O)n3nc(C)c(-c4ccc(F)cc4)c3[nH]2)cc1 | 10.6 | MIC [2]: 7.7 µM (≈ 2.69 µg/mL); IC50 (Vero): 35.6 µM
8 | Cc1nn2c(=O)cc(CSc3ccc(Cl)cc3)[nH]c2c1-c1ccc(Cl)cc1 | 41.4 | 
9 | CCc1nn2c(=O)cc(-c3ccc(OC)cc3)[nH]c2c1-c1ccc(Cl)cc1 | 19.7 | 
10 | Brc1cccc(-c2cnn3c(-c4ccccc4)cc(-c4ccccc4)nc23)c1 | > 200 | 
11 | CCOC(=O)Cc1c(C)nc2c(-c3ccccc3)cnn2c1O | > 200 | 
12 | Cc1cc(=O)n2nc(C(F)(F)F)c(-c3ccc(Cl)cc3)c2[nH]1 | 98.4 | 
13 | O=c1cc(Cc2ccccc2)[nH]c2c(-c3ccc(Cl)cc3)cnn12 | 114 | IC50 (Transketolase): 3.9 µM
14 | O=c1cc(Cc2ccccc2)[nH]c2c(-c3ccc(Cl)cc3)c(C(F)(F)F)nn12 | 14 | 
15 | FC(F)(F)c1cc(-c2ccc(Cl)cc2)nc2c(-c3ccc(Cl)cc3)cnn12 | > 200 | 
16 | Cc1cc(=O)n2ncc(-c3ccc(Cl)cc3)c2[nH]1 | > 200 | 
17 | Oc1cc(-c2ccccc2)nc2c(-c3ccccc3)c(C(F)(F)F)nn12 | 23 | 
18 | Cc1nn2c(=O)cc(CSc3ccc(Cl)cc3)[nH]c2c1-c1ccccc1 | 63.7 | 
19 | Cc1nn2c(=O)cc(-c3ccc4ccccc4c3)[nH]c2c1-c1ccccc1 | 19.5 | 
20 | Cc1cc(=O)n2nc(C(F)(F)F)c(-c3ccc(Br)cc3)c2[nH]1 | > 200 | 
21 | COc1ccc(-c2c(C(F)(F)F)nn3c(O)cc(-c4ccccc4)nc23)cc1 | 20.2 | 
22 | COCc1cc(=O)n2ncc(-c3ccc(Cl)cc3)c2[nH]1 | > 200 | 
23 | COc1ccc(-c2cc(=O)n3nc(C)c(-c4ccc(Cl)cc4)c3[nH]2)cc1 | 10.9 | MIC [2]: 7.6 µM (≈ 2.78 µg/mL); IC50 (Vero): 16 µM
24 | COc1ccc(-c2c(C)nn3c(=O)cc(-c4ccccc4)[nH]c23)cc1 | 90.7 | 
25 | Cc1nn2c(=O)cc(CSc3nnnn3-c3ccccc3)[nH]c2c1-c1ccc(Cl)cc1 | 55.1 | 
26 | Cc1[nH]c2c(-c3ccc(Cl)cc3)c(C(F)(F)F)nn2c(=O)c1Cc1ccccc1 | > 200 | 
27 | Cc1nn2c(=O)cc(-c3ccccc3)[nH]c2c1-c1ccc(Cl)cc1 | 34.2 | MIC [2]: 14.2 µM (≈ 4.77 µg/mL); IC50 (Vero): 39.5 µM; Selectivity Index [3]: 4.6
28 | COCc1cc(=O)n2nc(C)c(-c3ccc(Cl)cc3)c2[nH]1 | > 200 | 
